Values after ≈ are worked out from the molar mass of the structure shown.
Assays:
Candida albicans [1] = assay: Antifungal activity against Candida albicans SC5314 assessed as reduction in fungal growth incubated for 72 hrs by CLSI protocol based broth microdilution method; assay type: functional
Nakaseomyces glabratus = assay: Antifungal activity against Candida glabrata ATCC 0001 assessed as reduction in fungal growth incubated for 72 hrs by CLSI protocol based broth microdilution method; assay type: functional
Pichia kudriavzevii = assay: Antifungal activity against Candida krusei ATCC 6258 assessed as reduction in fungal growth incubated for 72 hrs by CLSI protocol based broth microdilution method; assay type: functional
Candida tropicalis = assay: Antifungal activity against Candida tropicalis ATCC 1369 assessed as reduction in fungal growth incubated for 72 hrs by CLSI protocol based broth microdilution method; assay type: functional
Aspergillus fumigatus = assay: Antifungal activity against Aspergillus fumigatus KM8001 assessed as reduction in fungal growth incubated for 72 hrs by CLSI protocol based broth microdilution method; assay type: functional
Candida albicans [2] = assay: Antifungal activity against Candida albicans strain 17 assessed as reduction in fungal growth incubated for 72 hrs by CLSI protocol based broth microdilution method; assay type: functional
Candida albicans [3] = assay: Antifungal activity against Candida albicans strain CaR assessed as reduction in fungal growth incubated for 72 hrs by CLSI protocol based broth microdilution method; assay type: functional
Candida albicans [4] = assay: Antifungal activity against Candida albicans strain 632 assessed as reduction in fungal growth incubated for 72 hrs by CLSI protocol based broth microdilution method; assay type: functional
Candida albicans [5] = assay: Antifungal activity against Candida albicans strain 901 assessed as reduction in fungal growth incubated for 72 hrs by CLSI protocol based broth microdilution method; assay type: functional
Candida albicans [6] = assay: Antifungal activity against Candida albicans strain 904 assessed as reduction in fungal growth incubated for 72 hrs by CLSI protocol based broth microdilution method; assay type: functional
Candida albicans [7] = assay: Induction of apoptosis against Candida albicans ATCC SC5314 assessed as viable cells measured after 48 hrs by Annexin V-FITC/propidium iodide staining based flow cytometry (reference value: 80.78 %); assay type: functional
Candida albicans [8] = assay: Induction of apoptosis against Candida albicans ATCC SC5314 assessed as mild apoptotic cells measured after 48 hrs by Annexin V-FITC/propidium iodide staining based flow cytometry (Rvb =0.29 %); assay type: functional
Candida albicans [9] = assay: Induction of apoptosis against Candida albicans ATCC SC5314 assessed as necrotic cells measured after 48 hrs by Annexin V-FITC/propidium iodide staining based flow cytometry (reference value: 18.22 %); assay type: functional
Candida albicans [10] = assay: Induction of apoptosis against Candida albicans ATCC SC5314 assessed as late apoptotic cells measured after 48 hrs by Annexin V-FITC/propidium iodide staining based flow cytometry (reference value: 0.71 %); assay type: functional
Candida albicans [11] = assay: Inhibition of SE/CYP51 in Candida albicans ATCC SC5314 assessed as ergosterol level incubated for 48 hrs by LC/MS analysis; set-up: scale not given: the % may be the effect or the level left
Candida albicans [12] = assay: Inhibition of SE/CYP51 in Candida albicans ATCC SC5314 assessed as squalene level incubated for 48 hrs by LC/MS analysis; set-up: scale not given: the % may be the effect or the level left
Candida albicans [13] = assay: Inhibition of SE/CYP51 in Candida albicans ATCC SC5314 assessed as lanosterol level incubated for 48 hrs by LC/MS analysis; set-up: scale not given: the % may be the effect or the level left
Candida albicans [14] = assay: Inhibition of SE/CYP51 in Candida albicans ATCC SC5314 assessed as eburicol level incubated for 48 hrs by LC/MS analysis; set-up: scale not given: the % may be the effect or the level left
Candida albicans [15] = assay: Inhibition of SE/CYP51 in Candida albicans ATCC SC5314 assessed as unknown sterol level incubated for 48 hrs by LC/MS analysis; set-up: scale not given: the % may be the effect or the level left
[16] = Inhibition of SE in Candida albicans ATCC SC5314 measured after 30 mins by HPLC analysis

SMILES | MIC50 (Candida albicans [1]) | MIC50 (Nakaseomyces glabratus) | MIC50 (Pichia kudriavzevii) | MIC50 (Candida tropicalis) | MIC50 (Aspergillus fumigatus) | also measured
O=C(NC(Cn1cncn1)c1ccccc1)c1ccc2ccccc2c1 (stereo unspecified) | 0.5 µg/mL (≈ 1.46 µM) | 1 µg/mL (≈ 2.92 µM) | 0.5 µg/mL (≈ 1.46 µM) | 0.5 µg/mL (≈ 1.46 µM) | 4 µg/mL (≈ 11.7 µM) | –
O=C(/C=C/c1cccc2ccccc12)NCC(=O)c1ccccc1 | 8 µg/mL (≈ 25.4 µM) | – | – | – | – | –
O=C(/C=C/c1ccc2ccccc2c1)NC(Cn1ccnc1)c1ccccc1 (stereo unspecified) | 0.5 µg/mL (≈ 1.36 µM) | 0.5 µg/mL (≈ 1.36 µM) | 1 µg/mL (≈ 2.72 µM) | 0.5 µg/mL (≈ 1.36 µM) | 4 µg/mL (≈ 10.9 µM) | –
O=C(NC(Cn1ccnc1)c1ccccc1)c1ccc2ccccc2c1 (stereo unspecified) | 0.5 µg/mL (≈ 1.46 µM) | 0.25 µg/mL (≈ 0.732 µM) | 0.5 µg/mL (≈ 1.46 µM) | 0.5 µg/mL (≈ 1.46 µM) | > 8 µg/mL | –
O=C(/C=C/c1cccc2ccccc12)NC(C(=O)Nc1cccnc1)c1ccccc1 (stereo unspecified) | 0.5 µg/mL (≈ 1.23 µM) | 1 µg/mL (≈ 2.45 µM) | 0.5 µg/mL (≈ 1.23 µM) | 0.5 µg/mL (≈ 1.23 µM) | 4 µg/mL (≈ 9.82 µM) | –
O=C(/C=C/c1cccc2ccccc12)NC(C(=O)NCc1ccncc1)c1ccccc1 (stereo unspecified) | 2 µg/mL (≈ 4.74 µM) | 0.5 µg/mL (≈ 1.19 µM) | 4 µg/mL (≈ 9.49 µM) | 2 µg/mL (≈ 4.74 µM) | > 8 µg/mL | –
O=C(/C=C/c1ccc2ccccc2c1)NC(Cn1ccnc1)C(=O)c1ccccc1 (stereo unspecified) | 0.5 µg/mL (≈ 1.26 µM) | 0.25 µg/mL (≈ 0.632 µM) | 0.5 µg/mL (≈ 1.26 µM) | 0.25 µg/mL (≈ 0.632 µM) | > 8 µg/mL | –
CN(C/C=C/c1ccccc1)Cc1cccc2ccccc12 [NAFTIFINE] | 0.5 µg/mL (≈ 1.74 µM) | 0.5 µg/mL (≈ 1.74 µM) | 0.25 µg/mL (≈ 0.87 µM) | 0.5 µg/mL (≈ 1.74 µM) | 4 µg/mL (≈ 13.9 µM) | MIC50 (Candida albicans [2]): 4 µg/mL (≈ 13.9 µM); MIC50 (Candida albicans [3]): > 8 µg/mL; MIC50 (Candida albicans [4]): 4 µg/mL (≈ 13.9 µM); MIC50 (Candida albicans [5]): > 8 µg/mL; MIC50 (Candida albicans [6]): 4 µg/mL (≈ 13.9 µM); Activity (Candida albicans [7]): 38.54%; Activity (Candida albicans [8]): 0.05%; Activity (Candida albicans [9]): 60.92%; Activity (Candida albicans [10]): 0.49%; Activity (Candida albicans [11]): 24.3%; Activity (Candida albicans [12]): 49.5%; Activity (Candida albicans [13]): 15.2%; Activity (Candida albicans [14]): 5.2%; Activity (Candida albicans [15]): 5.8%; IC50 [16]: 469 nM

— ChEMBL document CHEMBL5038624, “Construction and activity evaluation of novel dual-target (SE/CYP51) anti-fungal agents containing amide naphthyl structure” (Eur J Med Chem, 2022)
